According to ChEMBL document CHEMBL5143725, “Optimization of TEAD P-Site Binding Fragment Hit into In Vivo Active Lead MSC-4106” (J Med Chem, 2022):
Calls of active or inactive are those of the source. The calls are words filed in the database; no cut-off is given here.

What was measured:
[1] = molecular target: T1, Transcriptional enhancer factor TEF-3 (Homo sapiens, UniProt Q15561); test: Binding affinity to human TEAD4 (217 to 434 residues) expressed in Escherichia coli BL21 Star (DE3) by surface plasmon resonance assay
T1 sequence (Q15561 whole entry, the tested form may be a part): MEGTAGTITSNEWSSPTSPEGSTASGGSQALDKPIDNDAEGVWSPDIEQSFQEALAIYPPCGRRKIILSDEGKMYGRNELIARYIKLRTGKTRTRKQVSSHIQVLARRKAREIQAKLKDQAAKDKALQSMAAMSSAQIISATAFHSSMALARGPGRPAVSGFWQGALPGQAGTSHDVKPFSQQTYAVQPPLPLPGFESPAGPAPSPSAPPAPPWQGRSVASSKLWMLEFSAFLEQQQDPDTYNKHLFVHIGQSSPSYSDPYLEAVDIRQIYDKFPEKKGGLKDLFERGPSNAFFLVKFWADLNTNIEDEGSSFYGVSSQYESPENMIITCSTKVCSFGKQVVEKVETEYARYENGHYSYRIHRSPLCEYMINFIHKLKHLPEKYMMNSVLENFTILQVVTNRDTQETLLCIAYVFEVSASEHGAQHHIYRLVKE

[2] = molecular target: T2, Transcriptional enhancer factor TEF-1 (Homo sapiens, UniProt P28347); test: Inhibition of pSF-CMV-P-FLAG tagged human TEAD1 palmitoylation transfected in HEK293 cells at 10 uM incubated for 6 hrs by Western blot analysis relative to control; assay type: cell-based
T2 sequence (P28347 whole entry): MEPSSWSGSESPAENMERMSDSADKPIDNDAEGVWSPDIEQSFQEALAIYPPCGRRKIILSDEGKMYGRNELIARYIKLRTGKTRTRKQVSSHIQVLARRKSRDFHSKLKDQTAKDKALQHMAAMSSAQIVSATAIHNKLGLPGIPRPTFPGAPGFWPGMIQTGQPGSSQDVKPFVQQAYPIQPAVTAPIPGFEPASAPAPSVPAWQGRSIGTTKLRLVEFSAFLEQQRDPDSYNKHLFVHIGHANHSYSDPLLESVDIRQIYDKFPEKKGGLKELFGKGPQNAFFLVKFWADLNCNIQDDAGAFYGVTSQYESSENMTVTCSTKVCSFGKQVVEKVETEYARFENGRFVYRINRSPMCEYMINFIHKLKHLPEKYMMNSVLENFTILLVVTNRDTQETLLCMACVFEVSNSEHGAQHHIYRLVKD

[3] = molecular target: T3, Transcriptional enhancer factor TEF-4 (Homo sapiens, UniProt Q15562); test: Inhibition of pSF-CMV-P-FLAG tagged human TEAD2 palmitoylation transfected in HEK293 cells at 10 uM incubated for 6 hrs by Western blot analysis relative to control; assay type: cell-based
T3 sequence (Q15562 whole entry): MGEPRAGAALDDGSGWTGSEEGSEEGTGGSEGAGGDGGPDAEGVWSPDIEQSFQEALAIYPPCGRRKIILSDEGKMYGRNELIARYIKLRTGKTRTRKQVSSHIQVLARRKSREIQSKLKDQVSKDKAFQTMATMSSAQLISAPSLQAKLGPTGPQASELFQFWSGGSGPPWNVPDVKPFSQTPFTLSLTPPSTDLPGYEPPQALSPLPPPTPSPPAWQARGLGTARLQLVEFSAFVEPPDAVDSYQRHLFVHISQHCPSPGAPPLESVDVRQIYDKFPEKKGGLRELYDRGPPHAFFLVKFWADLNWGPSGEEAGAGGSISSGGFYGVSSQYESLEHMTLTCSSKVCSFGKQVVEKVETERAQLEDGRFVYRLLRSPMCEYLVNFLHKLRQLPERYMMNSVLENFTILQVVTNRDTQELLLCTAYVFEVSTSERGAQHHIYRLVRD

[4] = Inhibition of cysteine-rich angiogenic inducer 61 expression in human NCI-H226 cells incubated for 96 hrs by ELISA method; settings: NCI-H226, 96 h
[5] = molecular target: T2, Transcriptional enhancer factor TEF-1; test: Binding affinity to human TEAD1 (209 to 426 residues) expressed in Escherichia coli BL21 Star (DE3) assessed as change in melting temperature incubated for 2 hrs by measuring tryptophane fluorescence by Nano Differential scanning fluorometry
SW-620 = test: Cytotoxicity against YAP/TAZ knockout human SW620 cells assessed as cell viability measured for 4 days by celltiter-glo assay; settings: SW-620, 96 h
[6] = molecular target: T4, Transcriptional enhancer factor TEF-5 (Homo sapiens, UniProt Q99594); test: Binding affinity to human TEAD3 (216 to 435 residues) expressed in Escherichia coli BL21 Star (DE3) by surface plasmon resonance assay
T4 sequence (Q99594 whole entry, the tested form may be a part): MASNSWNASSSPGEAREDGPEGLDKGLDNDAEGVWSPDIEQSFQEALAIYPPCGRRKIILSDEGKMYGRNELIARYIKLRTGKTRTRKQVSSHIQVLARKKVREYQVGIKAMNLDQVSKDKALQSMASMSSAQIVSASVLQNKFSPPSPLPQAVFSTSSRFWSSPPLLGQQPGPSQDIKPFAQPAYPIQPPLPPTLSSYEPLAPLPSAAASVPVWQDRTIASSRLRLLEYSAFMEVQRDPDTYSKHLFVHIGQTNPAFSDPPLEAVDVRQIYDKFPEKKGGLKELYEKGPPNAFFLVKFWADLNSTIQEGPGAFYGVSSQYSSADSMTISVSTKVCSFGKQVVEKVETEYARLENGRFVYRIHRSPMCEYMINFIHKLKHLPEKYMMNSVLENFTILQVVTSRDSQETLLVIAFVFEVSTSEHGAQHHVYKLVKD

[7] = Inhibition of connective tissue growth factor expression in human SK-HEP1 cells incubated for 96 hrs by ELISA method; settings: SK-HEP1, 96 h
[8] = molecular target: T1, Transcriptional enhancer factor TEF-3; test: Binding affinity to human TEAD4 (217 to 434 residues) expressed in Escherichia coli BL21 Star (DE3) assessed as change in melting temperature incubated for 2 hr by measuring tryptophane fluorescence by Nano Differential scanning fluorometry
[9] = Inhibition of YAP/TAZ-TEAD interaction in human SK-HEP1 cells incubated for 24 hrs by luciferase reporter gene assay; assay type: cell-based
[10] = molecular target: T1, Transcriptional enhancer factor TEF-3; test: Inhibition of pSF-CMV-P-FLAG tagged human TEAD4 palmitoylation transfected in HEK293 cells at 10 uM incubated for 6 hrs by Western blot analysis relative to control; assay type: cell-based
[11] = molecular target: T4, Transcriptional enhancer factor TEF-5; test: Inhibition of pSF-CMV-P-FLAG tagged human TEAD3 palmitoylation transfected in HEK293 cells at 10 uM incubated for 6 hrs by Western blot analysis relative to control; assay type: cell-based
[12] = molecular target: T2, Transcriptional enhancer factor TEF-1; settings: HEK293, dose 100.0 nM, time 6.0 hrs
[13] = molecular target: T4, Transcriptional enhancer factor TEF-5; test: Binding affinity to human TEAD3 (216 to 435 residues) expressed in Escherichia coli BL21 Star (DE3) assessed as change in melting temperature incubated for 2 hrs by measuring tryptophane fluorescence by Nano Differential scanning fluorometry
[14] = molecular target: T3, Transcriptional enhancer factor TEF-4; test: Binding affinity to human TEAD2 (217 to 447 residues) expressed in Escherichia coli BL21 Star (DE3) by surface plasmon resonance assay
[15] = Inhibition of cysteine-rich angiogenic inducer 61 expression in human SK-HEP1 cells incubated for 96 hrs by ELISA method; settings: SK-HEP1, 96 h
[16] = molecular target: T4, Transcriptional enhancer factor TEF-5; test: Inhibition of pSF-CMV-P-FLAG tagged human TEAD3 palmitoylation transfected in HEK293 cells at 1 uM incubated for 6 hrs by Western blot analysis relative to control; assay type: cell-based
[17] = molecular target: T3, Transcriptional enhancer factor TEF-4; test: Binding affinity to human TEAD2 (217 to 447 residues) expressed in Escherichia coli BL21 Star (DE3) assessed as change in melting temperature incubated for 2 hrs by measuring tryptophane fluorescence by Nano Differential scanning fluorometry
[18] = Inhibition of connective tissue growth factor expression in human NCI-H226 cells incubated for 96 hrs by ELISA method; settings: NCI-H226, 96 h
NCI-H226 = test: In vivo antitumor activity against human NCI-H226 cells xenografted in mouse model assessed as tumor growth inhibition at 100 mg/kg, po qd measured after 32 days; assay type: functional, organism-based; settings: time 32.0 day
[19] = molecular target: T3, Transcriptional enhancer factor TEF-4; test: Binding affinity to human TEAD2 (217 to 447 residues) expressed in Escherichia coli BL21 Star (DE3) assessed as change in melting temperature incubated for 2 hrs measuring scattering fluorescence by Nano Differential scanning fluorometry
[20] = molecular target: T2, Transcriptional enhancer factor TEF-1; test: Binding affinity to human TEAD1 (209 to 426 residues) expressed in Escherichia coli BL21 Star (DE3) by surface plasmon resonance assay

Work on `Cn1cc2c3cc(C(=O)O)ccc3n(-c3ccc(C(F)(F)F)cc3)c2n1` yielded a Kd [1] of 5400 nM, an inhibition [2] of 90% and an inhibition [3] of 24%. It also gave an IC50 [4] of 13 nM, a ΔTm [5] of 13.4 °C and an IC50 (SW-620) of over 30000 nM. It also gave a Kd [6] of 1400 nM, an IC50 [7] of 10 nM and a ΔTm [8] of 0.4 °C. It also gave an IC50 [9] of 4 nM, an inhibition [10] of 12% and an inhibition [11] of 81%. For the same compound, the inhibition [12] was 55.7%, the ΔTm [13] was 5.1 °C and the Kd [14] was 4600 nM. The IC50 [15] was 24 nM, the inhibition [16] was 3.8% and the ΔTm [17] was -3.7 °C. For the same compound, the IC50 [18] was 11 nM, the Activity (NCI-H226) was “Active” and the ΔTm [19] was 3.7 °C. It also gave a Kd [20] of 120 nM.
